# Data: patent publication US20100105864A1, “PROPHYLACTIC OR THERAPEUTIC AGENT FOR DIARRHEA” (priority 2007, published 2010)
# Marks after values point to notes of the source that are not given here.
# System: Balb/c mice
# Assay: Anticancer agent (5-FU)-induced diarrhea model
# Format: in vivo
# Procedure: To each of Balb/c mice, an anticancer agent was administered to induce diarrhea, and γ-Glu-Val-Gly (hereinafter, referred to as “γEVG”) was studied for its inhibitory effect on diarrhea. To each of 6-week-old Balb/c mice fed with a low protein nutrient diet (4% casein diet) for 1 week, 5-FU (1 mg/animal/day) was intraperitoneally administered for consecutive 3 days. The diarrhea developed around Day 5 after the third administration of the anticancer agent, and the diarrhea appeared in all cases on Day 7. The presence or absence of diarrhea was determined based on the presence or absence of the stool in the tail head area. As the statistical test, a chi-square (χ^2) test for the control group (presence or absence of diarrhea) was employed, and p<0.05 was regarded as significant.
# Each administration of 0.01% γEVG was started in free water intake at the same time as the first administration of the anticancer agent, and continued until completion of the experiment.
# To each of Balb/c mice, an anticancer agent was administered to induce diarrhea, and a calcium receptor activator (hereinafter, referred to as “CaSR agonist”) was studied for its inhibitory effect on diarrhea. To each of 6-week-old Balb/c mice fed with a low protein nutrient diet (4% casein diet) for 1 week, 5-FU (1 mg/animal/day) was intraperitoneally administered for consecutive 3 days. The diarrhea developed around Day 5 after the third administration of the anticancer agent, and the diarrhea appeared in all cases on Day 7. The presence or absence of diarrhea was determined based on the presence or absence of the stool in the tail head area. As the statistical test, a chi-square (χ^2) test for the control group (presence or absence of diarrhea) was employed, and p<0.05 was regarded as significant.
# The administration of the CaSR agonist was started in free water intake at the same time as the administration of the low protein nutrient diet, and continued until completion of the experiment.
structure (smiles),measurement,setting,value
N[C@@H](CCC(=O)N[C@@H](CS)C(=O)NCC(=O)O)C(=O)O [γ-Glu-Cys-Gly],mice that did not exhibit the diarrhea symptom,"0.5% administration group, free water intake from start of low protein diet, control all 9/9 with diarrhea",2 out of 5
same,Ratio of individuals that developed diarrhea,"0.5% in free water intake from start of low protein diet, control 9/9, p < 0.05 chi-square",3/5*
